# Experimental data reported in ChEMBL document CHEMBL1151785, “Oleanolic acid and its derivatives: new inhibitor of protein tyrosine phosphatase 1B with cellular activities” (Bioorg Med Chem, 2008).
# Legend:
# [1] = biological target: T1, Tyrosine-protein phosphatase non-receptor type 1 (Homo sapiens, UniProt P18031); test: Inhibition of PTP1B by pNPP assay
# T1 sequence (P18031 whole entry): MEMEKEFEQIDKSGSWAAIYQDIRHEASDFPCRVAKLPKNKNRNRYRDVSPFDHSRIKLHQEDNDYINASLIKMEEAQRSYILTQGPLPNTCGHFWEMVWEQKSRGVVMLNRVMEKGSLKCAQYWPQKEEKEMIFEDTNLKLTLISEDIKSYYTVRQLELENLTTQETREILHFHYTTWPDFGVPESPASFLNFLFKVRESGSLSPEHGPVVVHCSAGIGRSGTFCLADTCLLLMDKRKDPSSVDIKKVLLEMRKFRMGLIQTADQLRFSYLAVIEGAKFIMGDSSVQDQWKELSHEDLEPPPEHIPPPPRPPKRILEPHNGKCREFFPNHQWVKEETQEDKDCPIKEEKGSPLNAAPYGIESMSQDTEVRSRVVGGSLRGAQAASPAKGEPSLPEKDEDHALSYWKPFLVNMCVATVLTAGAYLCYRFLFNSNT
# [2] = biological target: T2, Tyrosine-protein phosphatase non-receptor type 2 (Homo sapiens, UniProt P17706); test: Inhibition of TCPTP by pNPP assay
# T2 sequence (P17706 whole entry): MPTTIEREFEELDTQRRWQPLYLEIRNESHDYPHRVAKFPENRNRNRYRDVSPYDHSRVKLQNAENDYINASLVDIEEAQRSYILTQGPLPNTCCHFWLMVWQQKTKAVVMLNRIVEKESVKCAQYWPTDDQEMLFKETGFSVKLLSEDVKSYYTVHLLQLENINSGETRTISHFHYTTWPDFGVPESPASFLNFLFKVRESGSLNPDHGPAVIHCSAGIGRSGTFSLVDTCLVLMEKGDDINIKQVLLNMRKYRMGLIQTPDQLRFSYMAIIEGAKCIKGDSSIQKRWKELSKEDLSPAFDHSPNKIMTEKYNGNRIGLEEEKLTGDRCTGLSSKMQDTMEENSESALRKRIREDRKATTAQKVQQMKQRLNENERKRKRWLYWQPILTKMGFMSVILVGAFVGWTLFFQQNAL
IC50 [1] [µM],IC50 [2] [µM],Compound
3.19,,CC1(C)CC[C@]2(C(=O)Nc3ccc(C(=O)O)cc3)CC[C@]3(C)C(=CC[C@@H]4[C@@]5(C)CC[C@H](O)C(C)(C)[C@@H]5CC[C@]43C)[C@@H]2C1
0.88,0.85,CC1(C)CC[C@]2(CCCCCCC(=O)O)CC[C@]3(C)C(=CC[C@@H]4[C@@]5(C)CC[C@H](O)C(C)(C)[C@@H]5CC[C@]43C)[C@@H]2C1
0.62,0.49,CC1(C)CC[C@]2(C(=O)O)CC[C@]3(C)C(=CC[C@@H]4[C@@]5(C)CC[C@H](OCc6cccc(C(=O)O)c6)C(C)(C)[C@@H]5CC[C@]43C)[C@@H]2C1
15.4,,CC1(C)CC[C@]2(C(=O)NCC(=O)O)CC[C@]3(C)C(=CC[C@@H]4[C@@]5(C)CC[C@H](O)C(C)(C)[C@@H]5CC[C@]43C)[C@@H]2C1
0.52,0.52,COc1cccc(CC(NC(=O)CCCC[C@]23CCC(C)(C)C[C@H]2C2=CC[C@@H]4[C@@]5(C)CC[C@H](O)C(C)(C)[C@@H]5CC[C@@]4(C)[C@]2(C)CC3)C(=O)O)c1 (some centres undefined)
4.76,,CC1(C)CC[C@]2(C(N)=O)CC[C@]3(C)C(=CC[C@@H]4[C@@]5(C)CC[C@H](O)C(C)(C)[C@@H]5CC[C@]43C)[C@@H]2C1
5.32,5.63,CC1(C)CC[C@]2(C(=O)O)CC[C@]3(C)C(=CC[C@@H]4[C@@]5(C)CCC(=O)C(C)(C)[C@@H]5CC[C@]43C)[C@@H]2C1 [OLEANONIC ACID]
0.51,0.52,CC1(C)CC[C@]2(CCCCC(=O)NC(Cc3cccc(Cl)c3)C(=O)O)CC[C@]3(C)C(=CC[C@@H]4[C@@]5(C)CC[C@H](O)C(C)(C)[C@@H]5CC[C@]43C)[C@@H]2C1 (some centres undefined)
0.65,0.66,Cc1ccc(CC(NC(=O)CCCC[C@]23CCC(C)(C)C[C@H]2C2=CC[C@@H]4[C@@]5(C)CC[C@H](O)C(C)(C)[C@@H]5CC[C@@]4(C)[C@]2(C)CC3)C(=O)O)cc1 (some centres undefined)
0.55,0.75,CSCC[C@H](NC(=O)CCCC[C@]12CCC(C)(C)C[C@H]1C1=CC[C@@H]3[C@@]4(C)CC[C@H](O)C(C)(C)[C@@H]4CC[C@@]3(C)[C@]1(C)CC2)C(=O)O
2.85,2.53,C=C1CC[C@]2(C)[C@H]3CC=C4[C@@H]5CC(C)(C)CC[C@]5(C(=O)O)CC[C@@]4(C)[C@]3(C)CC[C@H]2C1(C)C
0.59,0.59,CC1(C)CC[C@]2(CCCCC(=O)N[C@@H](Cc3c[nH]c4ccccc34)C(=O)O)CC[C@]3(C)C(=CC[C@@H]4[C@@]5(C)CC[C@H](O)C(C)(C)[C@@H]5CC[C@]43C)[C@@H]2C1
12.4,> 20,C[C@H]1[C@H](C)CC[C@]2(C(=O)O)CC[C@]3(C)C(=CC[C@@H]4[C@@]5(C)C[C@@H](O)[C@H](O)[C@@](C)(CO)[C@@H]5[C@H](O)C[C@]43C)[C@H]12 [MADECASSIC ACID]
0.72,0.63,CC1(C)CC[C@]2(CCCCCCCCCCC(=O)O)CC[C@]3(C)C(=CC[C@@H]4[C@@]5(C)CC[C@H](O)C(C)(C)[C@@H]5CC[C@]43C)[C@@H]2C1
4.58,5,CC1(C)CC[C@]2(C(=O)O)CC[C@]3(C)C(=CC[C@@H]4[C@@]5(C)CC[C@H](OC(=O)c6ccccc6C(=O)O)C(C)(C)[C@@H]5CC[C@]43C)[C@@H]2C1
5.73,5.35,O=C(O)C(=O)c1ccc(OCc2ccc(COc3ccc(C(=O)C(=O)O)cc3)cc2)cc1
8.1,,CC1(C)CC[C@]2(C(=O)NCc3ccccc3)CC[C@]3(C)C(=CC[C@@H]4[C@@]5(C)CC[C@H](O)C(C)(C)[C@@H]5CC[C@]43C)[C@@H]2C1

IC50 [1] [µM],IC50 [2] [µM],Compound
0.66,0.75,COc1cccc(CC(NC(=O)CCCC[C@]23CCC(C)(C)C[C@H]2C2=CC[C@@H]4[C@@]5(C)CC[C@H](O)C(C)(C)[C@@H]5CC[C@@]4(C)[C@]2(C)CC3)C(=O)O)c1OC (some centres undefined)
0.82,0.7,COc1ccc(CC(NC(=O)CCCC[C@]23CCC(C)(C)C[C@H]2C2=CC[C@@H]4[C@@]5(C)CC[C@H](O)C(C)(C)[C@@H]5CC[C@@]4(C)[C@]2(C)CC3)C(=O)O)cc1OC (some centres undefined)
0.57,0.65,CC1(C)CC[C@]2(CCCCC(=O)NC(Cc3ccc(F)cc3)C(=O)O)CC[C@]3(C)C(=CC[C@@H]4[C@@]5(C)CC[C@H](O)C(C)(C)[C@@H]5CC[C@]43C)[C@@H]2C1 (some centres undefined)
0.55,0.5,Cc1ccccc1CC(NC(=O)CCCC[C@]12CCC(C)(C)C[C@H]1C1=CC[C@@H]3[C@@]4(C)CC[C@H](O)C(C)(C)[C@@H]4CC[C@@]3(C)[C@]1(C)CC2)C(=O)O (some centres undefined)
0.56,0.55,CC1(C)CC[C@]2(CCCCC(=O)NC(Cc3ccccc3Cl)C(=O)O)CC[C@]3(C)C(=CC[C@@H]4[C@@]5(C)CC[C@H](O)C(C)(C)[C@@H]5CC[C@]43C)[C@@H]2C1 (some centres undefined)
2.72,2.22,CC1(C)CC[C@]2(C(=O)O)CC[C@]3(C)C(=CC[C@@H]4[C@@]5(C)CC[C@H](OCc6ccccc6C(=O)O)C(C)(C)[C@@H]5CC[C@]43C)[C@@H]2C1
8.61,,CC1(C)CC[C@]2(C(=O)OCc3ccccc3)CC[C@]3(C)C(=CC[C@@H]4[C@@]5(C)CC[C@H](O)C(C)(C)[C@@H]5CC[C@]43C)[C@@H]2C1
0.63,0.85,COc1cc(CC(NC(=O)CCCC[C@]23CCC(C)(C)C[C@H]2C2=CC[C@@H]4[C@@]5(C)CC[C@H](O)C(C)(C)[C@@H]5CC[C@@]4(C)[C@]2(C)CC3)C(=O)O)cc(OC)c1 (some centres undefined)
0.59,0.53,CC1(C)CC[C@]2(CCCCCCCCCCCCC(=O)O)CC[C@]3(C)C(=CC[C@@H]4[C@@]5(C)CC[C@H](O)C(C)(C)[C@@H]5CC[C@]43C)[C@@H]2C1
5.97,5.36,CC1(C)CC[C@]2(C(=O)O)CC[C@]3(C)C(=CC[C@@H]4[C@@]5(C)CC[C@H](OC(=O)CCC(=O)O)C(C)(C)[C@@H]5CC[C@]43C)[C@@H]2C1 [OLEANOLIC ACID 3-O-SUCCINATE]
0.53,0.45,COc1ccccc1CC(NC(=O)CCCC[C@]12CCC(C)(C)C[C@H]1C1=CC[C@@H]3[C@@]4(C)CC[C@H](O)C(C)(C)[C@@H]4CC[C@@]3(C)[C@]1(C)CC2)C(=O)O (some centres undefined)
4.44,,COC(=O)[C@]12CCC(C)(C)C[C@H]1C1=CC[C@@H]3[C@@]4(C)CC[C@H](O)C(C)(C)[C@@H]4CC[C@@]3(C)[C@]1(C)CC2 [METHYL OLEANOLATE]
2.67,2.75,CC1(C)CC[C@]2(C(=O)O)CC[C@]3(C)C(=CC[C@@H]4[C@@]5(C)CC[C@H](OCc6ccccc6)C(C)(C)[C@@H]5CC[C@]43C)[C@@H]2C1
0.74,0.68,CC1(C)CC[C@]2(CCCCC(=O)N[C@H](Cc3ccccc3)C(=O)O)CC[C@]3(C)C(=CC[C@@H]4[C@@]5(C)CC[C@H](O)C(C)(C)[C@@H]5CC[C@]43C)[C@@H]2C1
9.2,,CNC(=O)[C@]12CCC(C)(C)C[C@H]1C1=CC[C@@H]3[C@@]4(C)CC[C@H](O)C(C)(C)[C@@H]4CC[C@@]3(C)[C@]1(C)CC2
16.4,,CC1(C)CC[C@]2(C(=O)N[C@@H](CCC(=O)O)C(=O)O)CC[C@]3(C)C(=CC[C@@H]4[C@@]5(C)CC[C@H](O)C(C)(C)[C@@H]5CC[C@]43C)[C@@H]2C1
,> 20,CC1(C)[C@@H](O)CC[C@]2(C)[C@H]3C(=O)C=C4[C@@H]5C[C@@](C)(C(=O)O)CC[C@]5(C)CC[C@@]4(C)[C@]3(C)CC[C@@H]12 [ENOXOLONE]
